# According to paper PMC2713373 (Biochemistry, 2009):
# Biological target: MtmOIV (Streptomyces argillaceus, UniProt Q194P4)
# Assay: X-ray crystal structure, […] Å
# Format: binding
# Conditions: non-covalently bound, IN conformation
structure (smiles),measurement,value
Cc1cc2nc3c(=O)[nH]c(=O)nc-3n(C[C@H](O)[C@H](O)[C@H](O)COP(=O)(O)OP(=O)(O)OC[C@H]3O[C@@H](n4cnc5c(N)ncnc54)[C@H](O)[C@@H]3O)c2cc1C [FAD],"X-ray crystal structure, 2.9 Å",The FAD cofactor was found non-covalently bound in the crystal structure
